Patent publication US9751869B2, “LXR modulators” (BRISTOL-MYERS SQUIBB COMPANY, priority 2013, dated 2017)
pEC50: −log10 of the molar value.

Biological target: T1, LXRβ (Homo sapiens, UniProt P55055)
T1 construct: Co-transfection expression plasmids, comprising full-length LXRα (pCMX-h LXRα or LXRβ (pCMX-hLXRβ)); expressed in transfected cells; host or cells: CV-1 African green monkey kidney cells, transient transfection with pCMX-hLXRβ
T1 sequence (P55055 1-460): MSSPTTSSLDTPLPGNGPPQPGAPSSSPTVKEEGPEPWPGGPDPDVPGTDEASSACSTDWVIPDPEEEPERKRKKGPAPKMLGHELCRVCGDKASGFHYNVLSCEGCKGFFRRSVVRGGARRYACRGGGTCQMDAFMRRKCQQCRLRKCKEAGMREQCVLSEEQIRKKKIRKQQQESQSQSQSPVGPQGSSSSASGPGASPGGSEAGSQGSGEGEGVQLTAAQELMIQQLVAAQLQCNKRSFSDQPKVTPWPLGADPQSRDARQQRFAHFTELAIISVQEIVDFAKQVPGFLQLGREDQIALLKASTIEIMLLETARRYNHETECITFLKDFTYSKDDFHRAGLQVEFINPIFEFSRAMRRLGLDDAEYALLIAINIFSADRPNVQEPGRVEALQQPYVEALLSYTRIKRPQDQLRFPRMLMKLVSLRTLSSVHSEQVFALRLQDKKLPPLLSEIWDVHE
T1 sequence (P19793 1-462 partner): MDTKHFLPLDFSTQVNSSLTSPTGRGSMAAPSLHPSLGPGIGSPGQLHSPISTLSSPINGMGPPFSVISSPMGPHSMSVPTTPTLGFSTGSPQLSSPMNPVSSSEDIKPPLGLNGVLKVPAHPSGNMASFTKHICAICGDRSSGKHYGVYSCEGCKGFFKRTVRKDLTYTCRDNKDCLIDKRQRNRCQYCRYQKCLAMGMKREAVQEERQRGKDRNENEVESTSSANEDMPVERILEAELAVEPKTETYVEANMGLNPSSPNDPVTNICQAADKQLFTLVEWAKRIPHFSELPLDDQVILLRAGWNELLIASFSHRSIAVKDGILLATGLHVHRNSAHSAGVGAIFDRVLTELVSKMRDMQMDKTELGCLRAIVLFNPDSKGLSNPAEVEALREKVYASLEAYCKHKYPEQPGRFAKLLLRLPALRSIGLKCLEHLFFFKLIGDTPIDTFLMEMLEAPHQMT
Assay: LXR/LXRE co-transfection assay (luciferase reporter) in CV-1 cells, LXRβ
Assay type: cell-based
Settings: for pEC50: CV-1 cells transfected with pCMX-hLXRβ and LXREx1-Tk-Luciferase, 20 hours incubation, read-out: LXRbeta agonism EC50; for Emax: CV-1 cells, relative to maximum response of high control N-(3-((4-fluorophenyl)-(naphthalene-2-sulfonyl)amino)propyl)-2,2-dimethylpropionamide, read-out: LXRbeta % EFFICACY
How it was run: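 CV-1 cells transiently co-transfected with full-length human LXRβ, LXRE-Tk-luciferase reporter and β-galactosidase control, then exposed to compound (≤0.5% DMSO) for 20 h at 37 °C before luminescence read. EC50 from 10-point, half-log dose curves; efficacy relative to the sulfonamide high control, means of 2–3 experiments.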

| pEC50 | Emax [%] | Compound |
| --- | --- | --- |
| 6.14 | 74 | Cc1nc(-c2cc(-c3cccc(C4(C(N)=O)CC4)c3)ccc2-n2nc(C(F)(F)F)cc2Cl)c(-c2ccc(OC(F)(F)F)cc2)o1 [Example 418, 1-(4′-(5-chloro-3-(trifluoromethyl)-1H-pyrazol-1-yl)-3′-(2-methyl-5-(4-(trifluoromethoxy)phenyl)oxazol-4-yl)-[1,1′-biphenyl]-3-yl) cyclopropanecarboxamide] |
| 7.74 | 94 | Cc1nc(-c2ccc3c(c2)OC(F)(F)O3)c(-c2cc(-c3cc(F)c(CO)c(S(C)(=O)=O)c3)ccc2-c2cc(CC#N)nn2C)o1 [Example 58, 2-(5-(3-(4-(2,2-difluorobenzo[d][1,3]dioxol-5-yl)-2-methyloxazol-5-yl)-3′-fluoro-4′-(hydroxymethyl)-5′-(methylsulfonyl)-[1,1′-biphenyl]-4-yl)-1-methyl-1H-pyrazol-3-yl)acetonitrile] |
| 6.33 | 29 | Cc1nc(-c2ccc(OC(F)(F)F)cc2)c(-c2cc(-c3cccc(S(C)(=O)=O)c3)ccc2-n2cc(Cl)c(C(F)(F)F)n2)o1 [Example 380, 5-(4-(4-chloro-3-(trifluoromethyl)-1H-pyrazol-1-yl)-3′-(methylsulfonyl)-[1,1′-biphenyl]-3-yl)-2-methyl-4-(4-(trifluoromethoxy)phenyl) oxazole] |
| 7.85 | 76 | Cc1nc(-c2cc(F)c(OC(F)F)c(F)c2)c(-c2cc(-c3cc(F)c(CO)c(S(C)(=O)=O)c3)ccc2-n2ccc(C(F)(F)F)n2)o1 [Example 352, (3′-(4-(4-(difluoromethoxy)-3,5-difluorophenyl)-2-methyloxazol-5-yl)-3-fluoro-5-(methylsulfonyl)-4′-(3-(trifluoromethyl)-1H-pyrazol-1-yl)biphenyl-4-yl)methanol] |
| 7.48 | 75 | Cc1nc(-c2ccc(Cl)cc2)c(-c2cc(-c3cc(F)c(CO)c(S(C)(=O)=O)c3)ccc2-n2ccc(C(F)(F)F)n2)o1 [Example 336, (3′-(4-(4-chlorophenyl)-2-methyloxazol-5-yl)-3-fluoro-5-(methylsulfonyl)-4′-(3-(trifluoromethyl)-1H-pyrazol-1-yl)biphenyl-4-yl)methanol] |
| 7.28 | 73 | Cc1nc(-c2cc(-c3cc(F)c(CO)c(S(C)(=O)=O)c3)ccc2-n2ccc(C(F)(F)F)n2)c(-c2ccc(OC(F)(F)F)cc2)o1 [Example 413, (3-fluoro-3′-(2-methyl-5-(4-(trifluoromethoxy)phenyl)oxazol-4-yl)-5-(methylsulfonyl)-4′-(3-(trifluoromethyl)-1H-pyrazol-1-yl)biphenyl-4-yl)methanol] |
| 7.51 | 104 | Cc1c(C(C)(F)F)nn(C)c1-c1ccc(-c2cccc(S(C)(=O)=O)c2)cc1-n1nncc1-c1ccc(OC(F)(F)F)cc1 [Example 10, 1-(4-(3-(1,1-difluoroethyl)-1,4-dimethyl-1H-pyrazol-5-yl)-3′-(methylsulfonyl)biphenyl-3-yl)-5-(4-(trifluoromethoxy)phenyl)-1H-1,2,3-triazole] |
| 7.17 | 55 | Cc1nc(-c2ccc3c(c2)OC(F)(F)O3)c(-c2cc(-c3cc(F)c(CO)c(S(C)(=O)=O)c3)ccc2-c2cc(C(C)(C)C(N)=O)nn2C)o1 [Example 65, 2-(5-(3-(4-(2,2-difluorobenzo[d][1,3]dioxol-5-yl)-2-methyloxazol-5-yl)-3′-fluoro-4′-(hydroxymethyl)-5′-(methylsulfonyl)biphenyl-4-yl)-1-methyl-1H-pyrazol-3-yl)-2-methylpropanamide] |
| 7.05 | 67 | Cc1nc(-c2cc(-c3cc(F)c(CO)c(S(C)(=O)=O)c3)ccc2-n2ccc(C(F)(F)F)n2)c(-c2ccc(Cl)c(OC(F)F)c2)o1 [Example 396, (3′-(5-(4-chloro-3-(difluoromethoxy)phenyl)-2-methyloxazol-4-yl)-3-fluoro-5-(methylsulfonyl)-4′-(3-(trifluoromethyl)-1H-pyrazol-1-yl)biphenyl-4-yl)methanol] |
| 7.38 | 71 | Cc1nc(-c2cc(-c3cccc(S(C)(=O)=O)c3)ccc2-n2nc(C(F)(F)F)cc2C)c(-c2ccc(OC(F)(F)F)cc2)o1 [Example 385, 2-methyl-4-(4-(5-methyl-3-(trifluoromethyl)-1H-pyrazol-1-yl)-3′-(methylsulfonyl)biphenyl-3-yl)-5-(4-(trifluoromethoxy)phenyl) oxazole] |
| 7.46 | 69 | Cc1nc(-c2ccc(OC(F)(F)F)cc2)c(-c2cc(-c3ccc(CO)c(S(C)(=O)=O)c3)ccc2-n2nc(C(F)(F)F)cc2C)o1 [Example 333, (4′-(5-methyl-3-(trifluoromethyl)-1H-pyrazol-1-yl)-3′-(2-methyl-4-(4-(trifluoromethoxy)phenyl)oxazol-5-yl)-3-(methylsulfonyl)biphenyl-4-yl)methanol] |
